Test results published in paper PMC11372839, “Unraveling the Potential of Vitamin B3-Derived Salts with a Salicylate Anion as Dermal Active Agents for Acne Treatment” (Molecular Pharmaceutics, 2024).
Converted amounts (≈) assume the structure as drawn. Where two headings read alike, the source gives them in different places.

Legend:
[1] = Octanol–water partition coefficient, shake-flask method (OECD Test No. 107); type: physicochemical
Description: The octanol–water partition coefficients (KOW) of the synthesized products were estimated by the shake-flask method according to the OECD Test No. 107 guidelines (Partition Coefficient n-Octanol/Water: Shake-Flask Method). Measurements were performed using mutually saturated distilled water and 1-octanol in a glass vial containing a magnetic stir bar. First, the synthesized products were dissolved in distilled water (or 1-octanol) at a chosen concentration (0.01 mol per 1 L of octanol or water), and then proper amounts of the second solvent (octanol or water) were added. Subsequently, two duplicate runs were carried out with different solvent ratios: 4 mL of 1-octanol and 2 mL of water (2:1), 4 mL of 1-octanol and 4 mL of water (1:1), and 4 mL of 1-octanol and 8 mL of water ([…]). All vials were shaken at a constant temperature of 25 °C. After 24 h, all samples were centrifuged and the aqueous and octanolic phases were collected with a syringe. The concentrations of compounds in water were determined spectrophotometrically using a Rayleigh UV-1601 spectrophotometer (Beijing Beifen-Ruili Analytical, China) based on calibration curves made previously (at λmax = 262 nm) vs concentration for each substance. Two repetitions of each measurement were performed in a specific solvent ratio (1:1, 1:2, and 2:1). Finally, the log KOW was calculated as the average of six results collected for each compound.
The outermost layer of the skin (stratum corneum) contains around […] water, a relatively low amount compared to the rest of the human body. Given the hydrophobic nature of 1-octanol, it can be used as a simplified model for the stratum corneum.[50] The octanol–water partition coefficient (KOW) value represents the proportion between the concentrations of a substance in both liquid phases of a system composed of water and 1-octanol. […] The log KOW values are given in Figure 6 (exact values are provided in Table S4, Supporting Information).

[2] = Solubility in PBS; conditions: for Solubility in PBS, Class: Pharmacopeia solubility class, PBS pH 7.4, 25 °C
Description: The solubility in PBS solution was determined by placing 1 g (±0.0001) of tested compound in a round-bottom flask and adding specific parts of the PBS solution in portions until full dissolution. The samples were vigorously stirred for at least 5 min before the addition of the next portion of PBS, and the systems were thermostated at 25 °C. Three repetitions of the measurement were performed for each of the compounds.
Most studies on the solubility of novel APIs are carried out with pure water, aqueous PBS solutions were much more preferred due to their higher similarity to intra- and intercellular media in epidermis, while envisaging their use in transdermal delivery and skin care applications.[60] […] The collected data are presented in Figure 8 (as well as in Table S6 in the Supporting Information).

[3] = system: Staphylococcus epidermidis; test: MIC and MBC determination, microdilution method; type: cell-based; conditions: for MIC: 18 h, read-out: MIC, S. epidermidis; for MBC: read-out: MBC, S. epidermidis
Description: (§1) The antimicrobial activities of the compounds were tested against clinical strains of an aerobic Gram-negative bacterium—Pseudomonas aeruginosa (P. aeruginosa), facultative anaerobic Gram-positive bacteria—Staphylococcus aureus (S. aureus) and Staphylococcus epidermidis (S. epidermidis), anaerobic Gram-positive bacterium—Cutibacterium acnes (C. acnes), and yeast-like fungus—Candida albicans (C. albicans).
(§2) Aerobic and facultative anaerobic bacteria cultures were grown in Brain Heart Infusion broth (BHI, bioMerieux, France) at 35 °C ± 1 °C for 18 h, C. acnes cultures were grown in thioglycolate broth with resazurin (TGB, bioMerieux, France) at 35 ± 1 °C for 48 h, and yeast cultures were grown in Sabouraud dextrose broth (SDB, Merck, Germany) at 35 ± 1 °C for 24 h. After incubation, each culture was diluted in a suitable liquid medium: P. aeruginosa, S. aureus, and S. epidermidis—Mueller–Hinton broth (MHB; Oxoid, UK); C. acnes—TGB; and C. albicans—SDB, to obtain a final suspension containing about 10^6 CFU/mL.
(§3) The microdilution method was employed to determine the compounds’ MIC (Minimal Inhibitory Concentration) and MBC/MFC (Minimal Bactericidal Concentration/Minimal Fungicidal Concentration) against the tested bacterial and fungal strains.
(§4) The compounds were serially diluted (2-fold) in the respective media (P. aeruginosa, S. aureus, and S. epidermidis—MHB, C. acnes—TGB, and C. albicans—SDB in 96-well plates), and the microbial suspensions were added. The compounds were tested in the final concentration range of 4 096 to 0.125 μg/mL, and the final microbial inoculum was approximately 5 ×10^5 CFU/mL. The tests were incubated at 35 °C ± 1 °C for 18 h (P. aeruginosa, S. aureus, and S. epidermidis) or 24 h (C. albicans) or 48 h (C. acnes). C. acnes was incubated in an anaerobic atmosphere using a GENbag anaer (bioMerieux, France). Media (without the strains) added to the different concentrations of tested compounds and media inoculated with microbial suspension were used as a negative control and growth control, respectively.
(§5) The MIC was defined as the lowest concentration at which visible growth was inhibited. MBC and MFC concentrations were determined as an extension of the MIC test. […] The plates were incubated at 35 ± 1 °C for 18–72 h. C. acnes was incubated in an anaerobic atmosphere. The MBC/MFC was defined as the lowest concentration at which no growth was observed. All tests were performed in duplicate.

[4] = system: Staphylococcus aureus; test: MIC and MBC determination, microdilution method; type: cell-based; conditions: for MIC: 18 h, read-out: MIC, S. aureus; for MBC: read-out: MBC, S. aureus
Description: as §1, §2, §3, §4, §5

[5] = clinical strain, tested 4 096 to 0.125 μg/mL, b = out of range
[6] = shake-flask, 25 °C, 24 h, average of six results, read-out: Octanol-water partition coefficient (log Kow)
[7] = volume of PBS (pH 7.4) to dissolve 1 g, 25 °C

SMILES	logP at 24 h [1]	Solubility in PBS, PBS [ml] ([2]; pH 7.4)	MIC [3, 5]	MBC [3, 5]	MIC [4, 5]	MBC [4, 5]	logP at 24 h [1, 6]	Solubility in PBS, Class [2]	Solubility in PBS, PBS [ml] [2, 7]	MIC [3]	MIC [4]	MBC [3]	MBC [4]
O=C(O)c1ccccc1O [SAL, salicylic acid, reference compound]	1.82	100 to 1000 mL	1020 µg/mL (≈ 7.41 mM)	1020 µg/mL (≈ 7.41 mM)	1020 µg/mL (≈ 7.41 mM)	1020 µg/mL (≈ 7.41 mM)							
CCCCCC[n+]1cccc(C(N)=O)c1.O=C([O-])c1ccccc1O [compound 3]							-0.18	Very Soluble (<1)	< 1 mL	4100 µg/mL	2050 µg/mL		
CCCCCCCC[n+]1cccc(C(N)=O)c1.O=C([O-])c1ccccc1O [compound 4]							0.07	Soluble (10-30)	10 to 30 mL	2050 µg/mL	1020 µg/mL		
CCCCCCCCCC[n+]1cccc(C(N)=O)c1.O=C([O-])c1ccccc1O [compound 5]							0.59	Slightly Soluble (100-1000)	100 to 1000 mL	256 µg/mL	256 µg/mL	256 µg/mL	256 µg/mL
